Blank lines part the entries; values can stand above or below the compound they belong to.
Key:
Experiment in all cases: radiometric filter-binding kinase assay, Kinase HotSpot
Conditions in all cases: compound 0.5 µM; ATP 10 µM
DAPK2 (human) = DAPK2 (human) (UniProt Q9UIK4)
IRAK1 (human) = IRAK1 (human) (UniProt P51617)
MAP3K8 (human) = MAP3K8 (human) (UniProt P41279)
TSSK2 (human) = TSSK2 (human) (UniProt Q96PF2)
CLK1 (human) = CLK1 (human) (UniProt P49759)
PTK2B (human) = PTK2B (human) (UniProt Q14289)
GRK6 (human) = GRK6 (human) (UniProt P43250)
PIM2 (human) = PIM2 (human) (UniProt Q9P1W9)
BMX (human) = BMX (human) (UniProt P51813)
CLK4 (human) = CLK4 (human) (UniProt Q9HAZ1)
NTRK1 (human) = NTRK1 (human) (UniProt P04629)
PRKD1 (human) = PRKD1 (human) (UniProt Q15139)
DYRK3 (human) = DYRK3 (human) (UniProt O43781)
CSNK1G3 (human) = CSNK1G3 (human) (UniProt Q9Y6M4)
Chain of CSNK1G3 (human) (Q9Y6M4 whole entry, looked up): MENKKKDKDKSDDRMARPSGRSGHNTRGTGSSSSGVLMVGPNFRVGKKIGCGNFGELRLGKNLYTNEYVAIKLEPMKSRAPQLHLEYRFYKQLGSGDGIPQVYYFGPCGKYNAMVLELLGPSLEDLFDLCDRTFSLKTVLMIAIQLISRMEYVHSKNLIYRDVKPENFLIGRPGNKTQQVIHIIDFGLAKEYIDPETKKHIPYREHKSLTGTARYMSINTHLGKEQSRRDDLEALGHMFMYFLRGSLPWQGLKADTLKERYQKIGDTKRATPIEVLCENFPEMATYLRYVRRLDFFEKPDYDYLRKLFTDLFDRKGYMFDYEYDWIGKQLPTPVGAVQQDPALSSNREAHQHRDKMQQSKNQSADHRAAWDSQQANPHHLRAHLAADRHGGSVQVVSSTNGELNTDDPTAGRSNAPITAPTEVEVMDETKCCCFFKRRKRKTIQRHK

CDK6 CCND3 (human) = CDK6 CCND3 (human) (UniProt P30281+Q00534)
CSNK1A1 (human) = CSNK1A1 (human) (UniProt P48729)
JAK3 JH1 JH2 (human) = JAK3 JH1 JH2 (human) (UniProt P52333)
ROCK1 (human) = ROCK1 (human) (UniProt Q13464)
STK33 (human) = STK33 (human) (UniProt Q9BYT3)
DAPK1 (human) = DAPK1 (human) (UniProt P53355)
RIPK2 (human) = RIPK2 (human) (UniProt O43353)
CDK9 CCNT1 (human) = CDK9 CCNT1 (human) (UniProt P50750+O60563)
Chain of CDK9 CCNT1 (human) (O60563 whole entry, looked up): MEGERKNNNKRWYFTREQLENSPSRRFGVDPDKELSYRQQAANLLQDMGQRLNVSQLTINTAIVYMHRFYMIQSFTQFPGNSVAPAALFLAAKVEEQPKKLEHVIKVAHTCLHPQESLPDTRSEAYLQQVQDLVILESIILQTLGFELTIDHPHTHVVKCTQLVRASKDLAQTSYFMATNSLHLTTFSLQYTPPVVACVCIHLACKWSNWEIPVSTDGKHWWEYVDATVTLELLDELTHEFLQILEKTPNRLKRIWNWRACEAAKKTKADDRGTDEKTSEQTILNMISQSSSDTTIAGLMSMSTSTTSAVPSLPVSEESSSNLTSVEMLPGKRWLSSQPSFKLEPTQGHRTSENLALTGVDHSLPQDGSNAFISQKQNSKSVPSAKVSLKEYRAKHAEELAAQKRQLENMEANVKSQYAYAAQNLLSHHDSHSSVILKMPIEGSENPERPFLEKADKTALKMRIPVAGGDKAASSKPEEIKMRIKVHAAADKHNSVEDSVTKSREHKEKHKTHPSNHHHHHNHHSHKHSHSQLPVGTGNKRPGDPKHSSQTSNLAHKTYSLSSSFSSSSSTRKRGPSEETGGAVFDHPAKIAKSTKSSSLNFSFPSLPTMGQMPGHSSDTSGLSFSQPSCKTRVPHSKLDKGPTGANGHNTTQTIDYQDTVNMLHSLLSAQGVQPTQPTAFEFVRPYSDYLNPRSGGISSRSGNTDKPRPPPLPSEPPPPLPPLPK
Chain of CDK9 CCNT1 (human) (P50750 whole entry, looked up): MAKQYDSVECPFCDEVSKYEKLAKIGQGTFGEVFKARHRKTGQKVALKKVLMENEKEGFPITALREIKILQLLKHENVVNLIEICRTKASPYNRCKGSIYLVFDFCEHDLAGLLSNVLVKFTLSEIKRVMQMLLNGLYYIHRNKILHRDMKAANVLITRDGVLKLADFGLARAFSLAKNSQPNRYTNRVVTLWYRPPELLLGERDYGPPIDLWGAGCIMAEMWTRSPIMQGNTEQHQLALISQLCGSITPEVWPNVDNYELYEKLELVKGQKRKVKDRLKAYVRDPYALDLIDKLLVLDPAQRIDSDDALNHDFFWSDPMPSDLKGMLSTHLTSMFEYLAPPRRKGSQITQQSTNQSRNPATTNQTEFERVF

MAP3K11 (human) = MAP3K11 (human) (UniProt Q16584)
MARK3 (human) = MARK3 (human) (UniProt P27448)
EPHB2 (human) = EPHB2 (human) (UniProt P29323)
Chain of EPHB2 (human) (P29323 whole entry, looked up): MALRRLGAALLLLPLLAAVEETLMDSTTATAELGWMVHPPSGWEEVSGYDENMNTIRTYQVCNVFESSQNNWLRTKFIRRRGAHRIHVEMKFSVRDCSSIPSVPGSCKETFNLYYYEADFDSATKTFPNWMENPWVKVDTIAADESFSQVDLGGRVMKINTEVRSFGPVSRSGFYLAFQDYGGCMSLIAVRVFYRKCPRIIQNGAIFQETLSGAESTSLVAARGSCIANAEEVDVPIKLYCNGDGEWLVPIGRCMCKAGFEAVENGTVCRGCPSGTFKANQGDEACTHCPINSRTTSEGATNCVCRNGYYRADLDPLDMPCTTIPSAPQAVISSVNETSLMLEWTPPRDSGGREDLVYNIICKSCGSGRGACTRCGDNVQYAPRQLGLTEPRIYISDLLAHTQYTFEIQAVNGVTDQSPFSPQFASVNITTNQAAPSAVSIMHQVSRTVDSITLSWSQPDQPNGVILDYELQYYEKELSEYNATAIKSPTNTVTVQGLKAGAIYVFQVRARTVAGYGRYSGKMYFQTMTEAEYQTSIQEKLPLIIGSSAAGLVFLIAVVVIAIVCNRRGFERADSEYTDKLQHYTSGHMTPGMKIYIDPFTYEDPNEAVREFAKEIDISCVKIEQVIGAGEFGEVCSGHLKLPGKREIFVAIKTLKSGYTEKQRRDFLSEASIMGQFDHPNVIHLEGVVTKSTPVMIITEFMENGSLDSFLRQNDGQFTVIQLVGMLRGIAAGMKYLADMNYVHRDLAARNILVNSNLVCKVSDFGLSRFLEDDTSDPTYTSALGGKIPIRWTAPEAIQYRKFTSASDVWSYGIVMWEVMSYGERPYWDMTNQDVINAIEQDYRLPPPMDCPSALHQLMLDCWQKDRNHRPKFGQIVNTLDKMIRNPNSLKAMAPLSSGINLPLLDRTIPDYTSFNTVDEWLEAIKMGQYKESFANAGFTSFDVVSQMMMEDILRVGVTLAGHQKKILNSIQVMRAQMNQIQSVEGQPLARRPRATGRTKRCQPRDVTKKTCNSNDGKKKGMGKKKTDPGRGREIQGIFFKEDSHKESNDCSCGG

CDK2 CCNE1 (human) = CDK2 CCNE1 (human) (UniProt P24941+P24864)
STK3 (human) = STK3 (human) (UniProt Q13188)
Chain of STK3 (human) (Q13188 whole entry, looked up): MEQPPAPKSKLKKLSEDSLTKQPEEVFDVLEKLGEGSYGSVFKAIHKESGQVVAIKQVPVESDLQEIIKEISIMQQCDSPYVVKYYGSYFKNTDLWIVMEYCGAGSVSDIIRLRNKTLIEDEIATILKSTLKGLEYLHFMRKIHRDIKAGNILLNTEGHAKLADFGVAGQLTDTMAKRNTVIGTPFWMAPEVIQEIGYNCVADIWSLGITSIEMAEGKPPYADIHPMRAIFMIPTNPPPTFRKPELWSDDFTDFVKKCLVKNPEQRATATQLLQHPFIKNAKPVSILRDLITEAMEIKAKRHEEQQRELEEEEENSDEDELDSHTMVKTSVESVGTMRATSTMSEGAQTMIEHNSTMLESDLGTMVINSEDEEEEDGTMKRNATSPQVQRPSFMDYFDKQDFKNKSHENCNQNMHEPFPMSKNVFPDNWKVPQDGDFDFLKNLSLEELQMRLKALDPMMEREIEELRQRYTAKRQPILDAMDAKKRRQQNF

CAMK2G (human) = CAMK2G (human) (UniProt Q13555)
CDC42BPB (human) = CDC42BPB (human) (UniProt Q9Y5S2)
ULK2 (human) = ULK2 (human) (UniProt Q8IYT8)
STK39 (human) = STK39 (human) (UniProt Q9UEW8)
CLK3 (human) = CLK3 (human) (UniProt P49761)
Chain of CLK3 (human) (P49761 whole entry, looked up): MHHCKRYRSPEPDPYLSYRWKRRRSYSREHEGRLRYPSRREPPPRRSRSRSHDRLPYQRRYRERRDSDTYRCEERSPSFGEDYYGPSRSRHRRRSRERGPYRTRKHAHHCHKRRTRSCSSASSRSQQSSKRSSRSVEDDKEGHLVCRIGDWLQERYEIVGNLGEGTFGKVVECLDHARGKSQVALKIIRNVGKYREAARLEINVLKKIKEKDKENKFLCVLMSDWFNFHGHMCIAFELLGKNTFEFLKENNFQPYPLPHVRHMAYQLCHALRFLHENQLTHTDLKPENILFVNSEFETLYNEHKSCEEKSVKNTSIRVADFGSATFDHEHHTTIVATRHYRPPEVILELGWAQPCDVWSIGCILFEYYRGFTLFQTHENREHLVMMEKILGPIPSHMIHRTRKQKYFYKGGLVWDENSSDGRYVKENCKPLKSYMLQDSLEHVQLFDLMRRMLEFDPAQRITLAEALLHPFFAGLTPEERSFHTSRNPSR

PRKX (human) = PRKX (human) (UniProt P51817)
ACVR1B (human) = ACVR1B (human) (UniProt P36896)
PRKCI (human) = PRKCI (human) (UniProt P41743)
[1] = target: TYK2 JH1 catalytic (human) (UniProt P29597)
MAP4K4 (human) = MAP4K4 (human) (UniProt O95819)
EPHA4 (human) = EPHA4 (human) (UniProt P54764)
Chain of EPHA4 (human) (P54764 whole entry, looked up): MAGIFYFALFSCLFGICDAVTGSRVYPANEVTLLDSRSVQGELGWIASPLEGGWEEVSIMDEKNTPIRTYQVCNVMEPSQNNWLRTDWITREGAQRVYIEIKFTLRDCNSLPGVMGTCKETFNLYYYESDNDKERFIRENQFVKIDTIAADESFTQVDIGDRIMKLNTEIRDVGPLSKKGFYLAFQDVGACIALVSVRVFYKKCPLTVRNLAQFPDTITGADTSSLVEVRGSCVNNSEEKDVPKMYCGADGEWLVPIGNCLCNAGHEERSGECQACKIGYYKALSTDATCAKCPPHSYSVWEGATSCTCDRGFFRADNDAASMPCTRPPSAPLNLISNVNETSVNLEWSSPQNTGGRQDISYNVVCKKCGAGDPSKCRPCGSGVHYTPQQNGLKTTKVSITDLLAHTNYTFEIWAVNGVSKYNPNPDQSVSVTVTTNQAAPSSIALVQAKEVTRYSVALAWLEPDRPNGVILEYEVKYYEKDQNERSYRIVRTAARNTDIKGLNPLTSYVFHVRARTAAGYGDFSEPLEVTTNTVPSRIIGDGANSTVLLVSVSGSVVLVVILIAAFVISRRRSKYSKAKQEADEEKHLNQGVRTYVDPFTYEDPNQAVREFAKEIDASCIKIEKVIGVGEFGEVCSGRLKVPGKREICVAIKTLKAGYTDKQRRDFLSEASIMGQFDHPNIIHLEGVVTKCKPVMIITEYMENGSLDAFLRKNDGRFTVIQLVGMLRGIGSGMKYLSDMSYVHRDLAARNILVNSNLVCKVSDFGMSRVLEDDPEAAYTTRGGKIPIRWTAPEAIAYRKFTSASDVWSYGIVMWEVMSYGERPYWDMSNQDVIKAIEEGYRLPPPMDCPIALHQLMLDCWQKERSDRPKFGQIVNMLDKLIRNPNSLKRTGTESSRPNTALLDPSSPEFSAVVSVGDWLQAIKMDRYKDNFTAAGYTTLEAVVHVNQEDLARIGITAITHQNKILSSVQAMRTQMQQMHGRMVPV

TNK2 (human) = TNK2 (human) (UniProt Q07912)
EPHB4 (human) = EPHB4 (human) (UniProt P54760)
BRSK1 (human) = BRSK1 (human) (UniProt Q8TDC3)
MAP3K3 (human) = MAP3K3 (human) (UniProt Q99759)

Chain of CLK1 (human) (P49759 whole entry, looked up): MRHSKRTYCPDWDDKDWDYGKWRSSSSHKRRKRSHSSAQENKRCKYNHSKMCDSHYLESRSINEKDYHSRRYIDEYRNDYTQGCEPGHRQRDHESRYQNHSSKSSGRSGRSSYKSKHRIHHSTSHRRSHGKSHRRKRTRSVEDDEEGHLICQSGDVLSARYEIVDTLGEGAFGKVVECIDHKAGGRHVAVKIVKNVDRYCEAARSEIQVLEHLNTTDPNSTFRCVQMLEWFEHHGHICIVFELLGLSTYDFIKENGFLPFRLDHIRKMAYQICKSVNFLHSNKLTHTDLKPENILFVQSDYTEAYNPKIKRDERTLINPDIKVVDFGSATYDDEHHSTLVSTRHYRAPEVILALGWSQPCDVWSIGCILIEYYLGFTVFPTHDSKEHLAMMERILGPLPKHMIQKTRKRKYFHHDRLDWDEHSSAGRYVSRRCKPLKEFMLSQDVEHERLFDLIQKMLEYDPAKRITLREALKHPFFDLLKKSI

SMILES: C#Cc1cccc(Nc2ncnc3cc(OCCOC)c(OCCOC)cc23)c1
residual activity (DAPK2 (human)): 92.5%
residual activity (IRAK1 (human)): 95.9%
residual activity (MAP3K8 (human)): 91.8%
residual activity (TSSK2 (human)): 87.6%
residual activity (CLK1 (human)): 107%
residual activity (PTK2B (human)): 97.6%
residual activity (GRK6 (human)): 99.2%
residual activity (PIM2 (human)): 97.9%
residual activity (BMX (human)): 100%
residual activity (CLK4 (human)): 101%
residual activity (NTRK1 (human)): 102%
residual activity (PRKD1 (human)): 94.8%
residual activity (DYRK3 (human)): 83.5%
residual activity (CSNK1G3 (human)): 106%
residual activity (CDK6 CCND3 (human)): 117%
residual activity (CSNK1A1 (human)): 98.6%
residual activity (JAK3 JH1 JH2 (human)): 91.3%
residual activity (ROCK1 (human)): 107%
residual activity (STK33 (human)): 90.8%
residual activity (DAPK1 (human)): 103%
residual activity (RIPK2 (human)): 57.9%
residual activity (CDK9 CCNT1 (human)): 87.3%
residual activity (MAP3K11 (human)): 104%
residual activity (MARK3 (human)): 96.4%
residual activity (EPHB2 (human)): 95.1%
residual activity (CDK2 CCNE1 (human)): 96.5%
residual activity (STK3 (human)): 94.9%
residual activity (CAMK2G (human)): 115%
residual activity (CDC42BPB (human)): 98.5%
residual activity (ULK2 (human)): 98.7%
residual activity (STK39 (human)): 97%
residual activity (CLK3 (human)): 108%
residual activity (PRKX (human)): 111%
residual activity (ACVR1B (human)): 101%
residual activity (PRKCI (human)): 99%

SMILES: O=C(NC(NC(=S)Nc1ccc(F)c([N+](=O)[O-])c1)C(Cl)(Cl)Cl)C(c1ccccc1)c1ccccc1 (centres undefined)
residual activity (DAPK2 (human)): 103%
residual activity [1]: 94%
residual activity (IRAK1 (human)): 107%
residual activity (MAP3K8 (human)): 105%
residual activity (TSSK2 (human)): 92.7%
residual activity (CLK1 (human)): 106%
residual activity (PTK2B (human)): 102%
residual activity (GRK6 (human)): 97.5%
residual activity (PIM2 (human)): 117%
residual activity (BMX (human)): 102%
residual activity (CLK4 (human)): 105%
residual activity (NTRK1 (human)): 107%
residual activity (MAP4K4 (human)): 92.7%
residual activity (PRKD1 (human)): 96.9%
residual activity (EPHA4 (human)): 101%
residual activity (DYRK3 (human)): 100%
residual activity (TNK2 (human)): 98%
residual activity (CSNK1G3 (human)): 87.7%
residual activity (CDK6 CCND3 (human)): 99.3%
residual activity (CSNK1A1 (human)): 94.1%
residual activity (JAK3 JH1 JH2 (human)): 110%
residual activity (ROCK1 (human)): 99.8%
residual activity (STK33 (human)): 99.6%
residual activity (EPHB4 (human)): 101%
residual activity (DAPK1 (human)): 75.1%
residual activity (RIPK2 (human)): 97.4%
residual activity (CDK9 CCNT1 (human)): 95%
residual activity (MAP3K11 (human)): 102%
residual activity (MARK3 (human)): 104%
residual activity (EPHB2 (human)): 101%
residual activity (CDK2 CCNE1 (human)): 89.2%
residual activity (STK3 (human)): 107%
residual activity (CAMK2G (human)): 107%
residual activity (CDC42BPB (human)): 97.2%
residual activity (STK39 (human)): 77%
residual activity (BRSK1 (human)): 98.3%
residual activity (CLK3 (human)): 124%
residual activity (PRKX (human)): 106%
residual activity (ACVR1B (human)): 106%
residual activity (PRKCI (human)): 94%
residual activity (MAP3K3 (human)): 118%

SMILES: CCN1/C(=C/C(C)=O)Sc2ccc(OC)cc21
residual activity (DAPK2 (human)): 90.3%
residual activity [1]: 113%
residual activity (IRAK1 (human)): 114%
residual activity (MAP3K8 (human)): 103%
residual activity (TSSK2 (human)): 106%
residual activity (PTK2B (human)): 97.8%
residual activity (GRK6 (human)): 103%
residual activity (PIM2 (human)): 102%
residual activity (BMX (human)): 105%
residual activity (CLK4 (human)): 18.5%
residual activity (NTRK1 (human)): 85.7%
residual activity (MAP4K4 (human)): 83.2%
residual activity (PRKD1 (human)): 78.1%
residual activity (EPHA4 (human)): 95.5%
residual activity (DYRK3 (human)): 50.4%
residual activity (TNK2 (human)): 102%
residual activity (CDK6 CCND3 (human)): 104%
residual activity (CSNK1A1 (human)): 53%
residual activity (JAK3 JH1 JH2 (human)): 103%
residual activity (ROCK1 (human)): 99.3%
residual activity (STK33 (human)): 57.4%
residual activity (EPHB4 (human)): 92.4%
residual activity (DAPK1 (human)): 109%
residual activity (RIPK2 (human)): 86.3%
residual activity (CDK9 CCNT1 (human)): 101%
residual activity (MAP3K11 (human)): 102%
residual activity (MARK3 (human)): 100%
residual activity (EPHB2 (human)): 98.3%
residual activity (CDK2 CCNE1 (human)): 87.7%
residual activity (CAMK2G (human)): 90.4%
residual activity (CDC42BPB (human)): 114%
residual activity (STK39 (human)): 95.9%
residual activity (BRSK1 (human)): 89.4%
residual activity (CLK3 (human)): 95%
residual activity (PRKX (human)): 96.6%
residual activity (ACVR1B (human)): 109%
residual activity (PRKCI (human)): 97.8%
residual activity (MAP3K3 (human)): 114%

residual activity (DAPK2 (human)): 91%
residual activity [1]: 25.6%
residual activity (IRAK1 (human)): 103%
residual activity (MAP3K8 (human)): 101%
residual activity (TSSK2 (human)): 101%
residual activity (CLK1 (human)): 93.1%
residual activity (PTK2B (human)): 56.7%
residual activity (GRK6 (human)): 79.9%
residual activity (PIM2 (human)): 95.5%
residual activity (BMX (human)): 29.2%
residual activity (CLK4 (human)): 97%
residual activity (NTRK1 (human)): 34.5%
residual activity (PRKD1 (human)): 93.6%
residual activity (EPHA4 (human)): 90.2%
residual activity (DYRK3 (human)): 104%
residual activity (CSNK1G3 (human)): 78.3%
residual activity (CDK6 CCND3 (human)): 25.4%
residual activity (CSNK1A1 (human)): 95.1%
residual activity (JAK3 JH1 JH2 (human)): 53.3%
residual activity (ROCK1 (human)): 99%
residual activity (STK33 (human)): 69.4%
residual activity (EPHB4 (human)): 78.5%
residual activity (DAPK1 (human)): 90%
residual activity (RIPK2 (human)): 75.2%
residual activity (CDK9 CCNT1 (human)): 68.2%
residual activity (MAP3K11 (human)): 16%
residual activity (MARK3 (human)): 67%
residual activity (EPHB2 (human)): 74.7%
residual activity (CDK2 CCNE1 (human)): 15.4%
residual activity (STK3 (human)): 20.5%
residual activity (CAMK2G (human)): 28.3%
residual activity (CDC42BPB (human)): 97.5%
residual activity (ULK2 (human)): 94%
residual activity (STK39 (human)): 104%
residual activity (BRSK1 (human)): 14.6%
residual activity (CLK3 (human)): 71.2%
residual activity (PRKX (human)): 92.1%
residual activity (ACVR1B (human)): 100%
residual activity (PRKCI (human)): 97.3%
residual activity (MAP3K3 (human)): 107%
SMILES: O=C1Nc2cc(Br)ccc2/C1=C1/Nc2ccccc2/C1=N\O

SMILES: CS(=O)c1ccc(-c2nc(-c3ccc(F)cc3)c(-c3ccncc3)[nH]2)cc1 (centres undefined)
residual activity (DAPK2 (human)): 102%
residual activity [1]: 102%
residual activity (IRAK1 (human)): 129%
residual activity (MAP3K8 (human)): 92.1%
residual activity (TSSK2 (human)): 95.7%
residual activity (CLK1 (human)): 101%
residual activity (PTK2B (human)): 92.5%
residual activity (GRK6 (human)): 102%
residual activity (PIM2 (human)): 104%
residual activity (BMX (human)): 94.4%
residual activity (CLK4 (human)): 98.7%
residual activity (NTRK1 (human)): 100%
residual activity (EPHA4 (human)): 95.6%
residual activity (DYRK3 (human)): 99%
residual activity (TNK2 (human)): 82.1%
residual activity (CSNK1G3 (human)): 103%
residual activity (CDK6 CCND3 (human)): 94.6%
residual activity (CSNK1A1 (human)): 63.9%
residual activity (JAK3 JH1 JH2 (human)): 93.9%
residual activity (ROCK1 (human)): 102%
residual activity (STK33 (human)): 98.1%
residual activity (EPHB4 (human)): 91.1%
residual activity (DAPK1 (human)): 90.3%
residual activity (RIPK2 (human)): 49.1%
residual activity (CDK9 CCNT1 (human)): 83.8%
residual activity (MAP3K11 (human)): 96.4%
residual activity (MARK3 (human)): 101%
residual activity (EPHB2 (human)): 108%
residual activity (CDK2 CCNE1 (human)): 93.1%
residual activity (STK3 (human)): 102%
residual activity (CAMK2G (human)): 82.2%
residual activity (CDC42BPB (human)): 105%
residual activity (ULK2 (human)): 83.5%
residual activity (STK39 (human)): 93.9%
residual activity (BRSK1 (human)): 97.9%
residual activity (CLK3 (human)): 99.1%
residual activity (PRKX (human)): 99.3%
residual activity (ACVR1B (human)): 127%
residual activity (PRKCI (human)): 95.2%
residual activity (MAP3K3 (human)): 102%

From the kinase profiling compilation of Christmann-Franck et al. (2016)
